US7709497B2, “Pyrazolo[3,4-b]pyridine compound, and its use as a PDE4 inhibitor” (Glaxo Group Limited, priority 2004, dated 2010)

How the values were obtained:
[1] = tested on: COPD patients; details: cilomilast: 15 mg orally twice daily; cited from earlier work
[2] = tested on: Dinitrofluorobenzene (DNFB)-induced delayed type hypersensitivity (DTH) response in pigs; assay: Pig model of atopic dermatitis: DNFB-induced DTH response, skin topical administration; format: in vivo
From the text: The pig DTH (delayed type hypersensitivity) model of contact hypersensitivity utilizes the Th2-mediated inflammatory response in pig skin to mimic the pathology of atopic dermatitis in humans. The model measures the potential anti-inflammatory effect of compounds, topically-applied to the skin, on the acute DTH (delayed type hypersensitivity) response in castrated male Yorkshire pigs.
In general in the assay, pigs (domestic Yorkshire pigs, 15-18 kg at time of sensitization, castrated males) are first sensitized by topical application of ca. 10% (w/v) dinitrofluorobenzene (DNFB) dissolved in DMSO:acetone:olive oil (ca. 1:5:3) (ca. 40 mg DNFB, 400 microlitre solution total) to the ears (outer) and groin (inner). The pigs are then challenged 12 days later with ca. 0.6% (w/v) DNFB applied to randomized sites on the shaved back of the pigs (ca. 90 micrograms/site; sites are identified and numbered by grid made with marking pen).
On the day of challenge, the treatments are performed at about 2 hours prior to and about 6 hours after challenge (for DMSO/acetone solutions/suspensions, to maximize exposure to drug), or at about 30 minutes after and about 6 hours after challenge (for topical ointments or creams, representing a more clinically relevant treatment protocol).
One day (about 24 hrs) after challenge, and optionally again at ca. 48 hrs post challenge, test sites are visually evaluated for intensity and extent of erythema by measuring the diameter of the reaction at its widest point and assigning scores of 0 to 4 for each of erythema intensity and erythema extent. Induration (a measure of swelling) is also scored 0 to 4. Scores for erythema intensity, erythema extent and induration are assigned according to the following criteria: Intensity of Erythema: 0=normal, 1=minimal, barely visible, 2=mild, 3=moderate, 4=severe. Extent of Erythema (not raised): 0=no edema, 1=macules of pin head size, 2=lentil sized macules, 3=confluent macules, 4=diffuse over entire site. Induration (palpable): 0=normal, 1=nodules of pin head size, 2=doughy lentil sized nodules, 3=confluent firm nodules, 4=diffuse hard lesion. The summed visual score at ca. 24 hours includes the individual scores for erythema intensity, erythema extent, and induration; so the maximal summed score for each site would be 12. High summed scores can generally indicate a high inflammatory response. Visual scores are subject to some inaccuracy/error.
Differences in the summed score between adjacent control (placebo) and treatment sites on the grids are calculated. This difference value is then used to determine the percent inhibition compared to the summed score for the control (placebo) sites. The more negative the difference value, the greater the calculated inhibition. Percent inhibition of (percent inhibition compared to) the mean summed score can be calculated.
About 24 hours after challenge, treatment sites can optionally also be visually evaluated for lesion area.
The anti-inflammatory effect of the compound of formula (I) (“free base” form), applied topically to the skin, on the acute DTH response in castrated male Yorkshire pigs is compared to that of another PDE4 inhibitor cipamfylline (BRL-61063) and the topical immunomodulator pimecrolimus.
In the above assay, the compound of formula (I) is topically administered: either (A) at ca. 2.5% (w/v) concentration in a solution of ca. 10% DMSO/90% acetone (ca. 50 microliters or ca. 1.5 mg/site) at about 2 hours prior to and about 6 hours after the DNFB challenge; or (B) at ca. 0.5% (w/w) concentration in an ointment containing propylene glycol (PG)*(ca. 25 mg of formulation/site) at about 30 minutes after and about 6 hours after the DNFB challenge. […]

[3] = tested on: atopic dermatitis patients; details: 0.15% cream vs cream vehicle and hydrocortisone 17-butyrate (0.1%) cream; cited from earlier work

For `COc1ccc([C@]2(C#N)CC[C@@H](C(=O)O)CC2)cc1OC1CCCC1` [cilomilast], the “forced expiratory volume in 1s (FEV1) in COPD patients” value [1] is given as “appears to improve forced expiratory volume in 1s (FEV1)”.

In the case of `Nc1nc2c([nH]1)c(=O)n(CC1CC1)c(=O)n2CC1CC1` [cipamfylline, reference compound], the “reduction in summed scores” value ([2]; ca. 0.25% (w/w) in ointment, not statistically significant) is listed as 6-7%, the “reduction in mean summed score” value ([2]; ca. 2.5% (w/v) in DMSO/acetone solution, vs vehicle alone, ca. 24 h after challenge) is listed as “about 8%” and the “efficacy in treatment of atopic dermatitis patients” value [3] is listed as “significantly more effective than vehicle, but significantly less effective than hydrocortisone 17-butyrate (0.1%) cream”.

In the case of `CC[C@@H]1/C=C(\C)C[C@H](C)C[C@H](OC)[C@H]2O[C@@](O)(C(=O)C(=O)N3CCCC[C@H]3C(=O)O[C@H](/C(C)=C/[C@@H]3CC[C@H](Cl)[C@H](OC)C3)[C@H](C)[C@@H](O)CC1=O)[C@H](C)C[C@@H]2OC` [pimecrolimus, reference compound], the “inhibition of summed scores” value ([2]; 1% (w/w) cream formulation, p<0.05 by ANOVA) is reported as “about 29%”.
